Results: article PMC3481288 (The Journal of Biological Chemistry, 2012)

Target: T1, PBP2ALGA (Staphylococcus aureus, UniProt F4NA57)
T1 sequence (F4NA57 23-665 limits assumed): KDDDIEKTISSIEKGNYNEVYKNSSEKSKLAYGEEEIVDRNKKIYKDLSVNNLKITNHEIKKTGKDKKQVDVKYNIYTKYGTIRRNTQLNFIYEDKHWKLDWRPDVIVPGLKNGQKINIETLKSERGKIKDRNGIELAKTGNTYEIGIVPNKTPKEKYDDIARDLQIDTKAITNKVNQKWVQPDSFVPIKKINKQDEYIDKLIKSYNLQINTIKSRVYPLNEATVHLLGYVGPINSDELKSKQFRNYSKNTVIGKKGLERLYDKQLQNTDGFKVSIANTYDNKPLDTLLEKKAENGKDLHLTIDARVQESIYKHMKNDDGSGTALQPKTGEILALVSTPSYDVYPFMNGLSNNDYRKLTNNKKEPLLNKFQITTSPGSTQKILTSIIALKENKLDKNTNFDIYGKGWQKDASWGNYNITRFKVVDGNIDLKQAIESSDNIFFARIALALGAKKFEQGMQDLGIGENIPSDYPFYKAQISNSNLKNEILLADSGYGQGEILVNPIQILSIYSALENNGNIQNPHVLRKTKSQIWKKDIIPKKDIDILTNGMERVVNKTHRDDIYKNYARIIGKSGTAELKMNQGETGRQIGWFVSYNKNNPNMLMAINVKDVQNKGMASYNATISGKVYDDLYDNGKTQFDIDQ
Experiment: Bocillin FL competition, SDS-PAGE fluorescence
Format: binding

Row | IC50 | Compound
1 | 501 µM | CO[C@@]1(NC(=O)Cc2cccs2)C(=O)N2C(C(=O)O)=C(COC(N)=O)CS[C@@H]21 [cefoxitin]
2 | 212 µM | Cc1onc(-c2ccccc2)c1C(=O)N[C@@H]1C(=O)N2[C@@H]1SC(C)(C)[C@@H]2C(=O)O [oxacillin]
